These results are taken from article PMC11695783 (Frontiers in Pharmacology, 2024).

Structures are written as SMILES. Values joined by “and” are separate entries in the source; they are usually repeats but may differ in a detail not shown here. Identical values can stand only once. Like-named read-outs stand apart in the source and are kept apart here. Bounds are passed on as bounds.

Data set [1] relates to mice. Particulars: acute oral toxicity, ref EMA, 1999, cited from earlier work.
For data set [2], the system named is mice. Also on record: method as in EMA, 1999. Particulars: administered intravenously, ref EMA, 1999; cited from earlier work.
Data set [3] concerns RAW 264.7. Also on record: method as in PMID 26150841. Particulars: RAW 264.7, 8 μg/mL, compared with the control drugs; ref [30]; cited from earlier work.
The test system of data set [4] is ICR strain mice. Briefly: Acute toxicity study, intramuscular injection. Type of data set: in vivo. As for the experimental part: Ten mice were gavaged with 5,000 mg/kg of compound 16C and another 10 mice were given DMSO orally as a control. The mice were fed and watered ad libitum. The animals’ appearance, diet, behavior, and death were observed and recorded for 14 consecutive days after administration. The LD50 was calculated as previously described ([Xiao et al., 2019]), and the test was repeated twice. To assess the acute toxicity of intramuscular administration in mice, we repeated the above experiment and replaced gavage with intramuscular injection.

A short description of data set [5]: Pharmacokinetic studies in mice (intravenous and intramuscular, plasma, HPLC-MS/MS). Type of data set: in vivo, BALB/c mice. Also on record: AUClast / AUCall / AUCINF_obs / AUCINF_pred / AUCINFobs: concentration or dose not given beside the values. Particulars: for F / Ka / Kel / T1/2ka / T1/2kel / Tmax / Cmax / AUC0-∞ / Cl / Vd / C0: mice; for AUCINFobs / AUClast / AUClast/AUCINFobs ratio / AUC0-t/AUC0-∞ ratio (AV): non-compartment model; for AUCINFobs / AUClast / AUClast/AUCINFobs ratio: individual mice; for AUC0-t/AUC0-∞ ratio (AV): mean. As for the experimental part: Pharmacokinetic experimental procedures of compound 16C were measured according to previous reports with some modifications ([Wang et al., 2022]). In brief, BALB/c mice were divided into two groups of eight mice each; one group was injected intravenously and the other was injected intramuscularly with compound 16C at a dose of 10 mg/kg. The dose was based on previous studies of novel pleuromutilin derivatives ([Jin et al., 2019]; [Wang et al., 2022]). Meanwhile, the dose of tiamulin approved by the European Union for intramuscular administration is 10–20 mg/kg ([EMA, 1999]). The volume of the injection was 0.1 mL/10 g. The compound 16C formulation was a filtered solution in 5% DMSO, 5% Tween-80, and 90% normal saline. Blood was obtained from eight mice via the ocular venous plexus at 0.083, 0.167, 0.25, 0.334, 0.5, 0.75, 1, 1.5, 2, 3, 4, 6, 8, and 12 h following tail intravenous or thigh Intramuscular injection. A glass capillary with a diameter of 0.3 mm was inserted into the outer canthus of the mouse, and 200 μL blood was collected using a 1.5 mL anticoagulant centrifuge tube. The blood was centrifuged at 3,000 rpm for 10 min to obtain plasma. 100 μL of plasma was aspirated for drug concentration detection, and eight parallel samples from different mice were obtained at each time point.
All pharmacokinetic experimental samples and method validation samples were added with 4 times the volume of acetonitrile and shaken for 1 min, centrifuged at high speed at 13,000× g for 10 min, and the supernatants were taken and filtered to detect the drug concentration. Some samples with high concentrations were diluted to the linear range prior to analysis.
The extracted samples were analyzed using a high-performance liquid chromatography-tandem mass spectrometry (HPLC-MS/MS) system (Agilent, Santa Clara, CA, United States) 1200 HPLC and Applied Biosystems (Waltham, MA, United States) API 4000 mass spectrometer). HPLC-MS/MS analysis using a Zorbax Eclipse XDB-C18 (4.6 × 50 mm, 3.5 μm) column (Agilent). The mobile phase A (acetonitrile) and B (water) were applied as a gradient as follows: 0–3 min: 15%–95% A and maintain from 3 min to 5 min at 95% A. 5–5.1 min: 95%–15% A and maintain from 5.1 to 10 min at 15% A. Flow rate: 500 μL/min; column temperature: 30°C and injection volume: 4 μL. The electrospray ionization (ESI) source of the mass spectrometer was operated in […], with the following ion source parameters: ion spray voltage 4,500 V, collision gas 7 psi, ion source gas 1 55 psi, ion source gas 2 40 psi, curtain gas 20 psi, source temperature 600°C. The precursor ion m/z of Compound 16C was 633.3, and the product ions m/z were 272.0 (quantifier) 286.9 and 313.0. Declustering potentials (DP) were 140, 140, and 144 V, respectively; entrance potential (EP) was 10 V; collision energy (CE) was 55, 46, and 15 V, respectively; and collision cell exit potential (CXP) was 14 V.
[…] Pharmacokinetic parameters include time to maximum concentration (Tmax), maximum concentration (Cmax), the area under the plasma concentration–time curve (AUC0-∞), clearance rate (CL), the apparent volume of distribution (Vd), bioavailability (F), elimination half-life (T1/2kel) and absorption half-life (T1/2ka).

Data set [6] deals with A549. More on the design: method as in PMID 26150841. Particulars: A549, 8 μg/mL, compared with the control drugs; ref [30]; cited from earlier work.

A word on the LD50: it is the dose expected to kill half of the subjects tested. `C=C[C@]1(C)C[C@@H](OC(=O)CSCCN(CC)CC)[C@]2(C)[C@H](C)CC[C@]3(CCC(=O)[C@H]32)[C@@H](C)[C@@H]1O` [tiamulin, Tiamulin, reference compound]: the median lethal dose (LD50) in data set [1] (female mice) is 650 mg/kg; in data set [1] (male mice), 770 mg/kg; in data set [2], 50 mg/kg.

Broadly, the Tmax is the time at which the peak concentration occurs. The Cmax is the maximum level reached in the sampled fluid or tissue. `C=CC1(C)CC(OC(=O)CSc2ccc(NC(=O)Cc3ccc([N+](=O)[O-])cc3)cc2)C2(C)C(C)CCC3(CCC(=O)C32)C(C)C1O` (centres unmarked) [compound 16C, 22–((4-((4-nitrophenyl)acetamido)phenyl)thio)deoxypleuromutilin]: the “influence on cell viability” value in data set [3] is recorded as “only slight influences on the viability”. Moreover, the mouse deaths result in data set [4] (single dose of 5,000 mg/kg, after 2 weeks) is given as “did not result in any mouse deaths”. Besides, the LD50 in data set [4] (single dose, mice, observed 14 d) is > 5,000 mg/kg. In data set [5] (IM 10 mg/kg), the F came out at 71.29 ± 19.34%, the Ka worked out at 14.41 ± 7.76 h⁻¹, the Kel was determined as 0.33 ± 0.07 h⁻¹ and the T1/2ka worked out at 3.6 ± 1.8 min. In data set [5] (IM 10 mg/kg), the T1/2kel was 2.20 h and 2.20 ± 0.52 h; the Tmax is listed as 0.24 ± 0.09 h. Besides, the Cmax in data set [5] (IM 10 mg/kg, n = 8) worked out at 500 ± 110 ng/mL. Also, in data set [5] (IM 10 mg/kg, two-compartmental model), the “AUC0-∞” value was 1070 ± 230 ng·h/mL. In data set [5] (IM 10 mg/kg, listed as Compound 16C), the T1/2ka amounted to 3.6 min. In data set [5] (IM), the AUCINFobs was 805.258 and 1373.07 and 1092.7 and 1076.67 and 1204.87 and 1450.76 and 1023.1 and 1087.9; the AUClast is 801.322 and 1354.01 and 1070.85 and 1055.33 and 1188.66 and 1432.45 and 925.896 and 1050.1; the AUClast/AUCINFobs ratio is 99.5113% and 98.6117% and 98.0006% and 98.0177% and 98.6551% and 98.7381% and 90.4989% and 96.5252%; the “AUC0-t/AUC0-∞ ratio (AV)” value was 97.32% and 97.3198%. In addition, in data set [5] (IV 10 mg/kg), the Cl came to 112 ± 27.8 mL/min/kg, the Kel came to 0.41 ± 0.14 h⁻¹ and the Vd was 3.55 ± 1.32 L/kg. Further, in data set [5] (IV 10 mg/kg, n = 8), the C0 stood at 5580 ± 1250 ng/mL. In addition, in data set [5] (IV 10 mg/kg, two-compartmental model), the “AUC0-∞” value was 1560 ± 370 ng·h/mL. The T1/2kel in data set [5] (IV 10 mg/kg, 10 mg/kg) is 1.89 h and 1.89 ± 0.61 h. Besides, in data set [5] (IV), the AUCINFobs is 1454.8 and 1871.31 and 1501.72 and 1496.6 and 2594.18 and 1752.1 and 2317.09 and 1731; the AUClast was 1441.26 and 1869.35 and 1488.47 and 1490.96 and 2574.6 and 1734.84 and 2287.49 and 1712.29; the AUClast/AUCINFobs ratio was 99.0694% and 99.8954% and 99.1179% and 99.6229% and 99.2455% and 99.0149% and 98.7227% and 98.9189%; the “AUC0-t/AUC0-∞ ratio (AV)” value was 99.20% and 99.2009%. Further, in data set [5] (IM(10mg/kg), n=8), the “AUC0-∞” value was 1070 ± 230 ng·h/mL, the Cmax is 500 ± 110 ng/mL, the F is given as 71.29±19.34% and the Ka worked out at 14.41 ± 7.76 h⁻¹. Further, in data set [5] (IM(10mg/kg), n=8), the Kel was 0.33 ± 0.07 h⁻¹, the T1/2ka stood at 3.6 ± 1.8 min, the T1/2kel turned out to be 2.20 ± 0.52 h and the Tmax turned out to be 0.24 ± 0.09 h. Also, in data set [5] (IV(10mg/kg), n=8), the “AUC0-∞” value stood at 1560 ± 370 ng·h/mL, the C0 was 5580 ± 1250 ng/mL, the Cl was 112 ± 27.8 mL/min/kg and the Kel worked out at 0.41 ± 0.14 h⁻¹. Besides, in data set [5] (IV(10mg/kg), n=8), the T1/2kel was found to be 1.89 ± 0.61 h and the Vd was determined as 3.55 ± 1.32 L/kg. Also, in data set [6], the “influence on cell viability” value was “only slight influences on the viability”.
